Calls of active or inactive are those of the source. The calls are words filed in the database; no cut-off is given here.
Columns and labels:
[1] = tested on: HCC1806; assay: Downregulation of SOCS3 level in human HCC1806 cells at 0.1 to 0.4 uM incubated for 24 hrs by Western blot analysis; type: functional, cell-based; details: dose 0.1-0.4 µM
[2] = tested on: HCC1806; assay: Induction of apoptosis in human HCC1806 cells assessed as viable cells at 0.1 uM incubated for 24 hrs by Annexin V-FITC/PI staining based flow cytometry (reference value: 98.95 %); type: functional; details: read-out: Activity
[3] = tested on: HCC1806; assay: Induction of apoptosis in human HCC1806 cells assessed as ROS production rate at 0.4 uM incubated for 24 hrs by DCFH-DA staining based flow cytometry (reference value: 0.23 %); type: functional
[4] = tested on: HCC1806; assay: Induction of apoptosis in human HCC1806 cells assessed as early apoptotic cells at 1.6 uM incubated for 24 hrs by Annexin V-FITC/PI staining based flow cytometry (reference value: 0.67 %); type: functional
[5] = tested on: HCC1806; assay: Induction of apoptosis in human HCC1806 cells assessed as necrotic cells at 0.4 uM incubated for 24 hrs by Annexin V-FITC/PI staining based flow cytometry (reference value: 0.15 %); type: functional
[6] = tested on: Hs-578T; assay: Anti-proliferative activity against human Hs-578T cells assessed as cell growth inhibition incubated for 72 hrs by MTT assay; type: functional, cell-based
[7] = tested on: HCC1806; assay: Inhibition of colony formation in human HCC1806 cells at 0.05 uM measured after 7 days; type: functional, cell-based; details: time 7.0 day
[8] = tested on: MDA-MB-231; assay: Induction of apoptosis in human MDA-MB-231 cells assessed as decrease in Bcl-2 level by Western blot analysis; type: functional, cell-based; details: dose 0.1-0.4 µM
[9] = tested on: HCC1806; assay: Induction of apoptosis in human HCC1806 cells assessed as ROS production rate at 0.2 uM incubated for 24 hrs by DCFH-DA staining based flow cytometry (reference value: 0.23 %); type: functional
[10] = tested on: MDA-MB-231; assay: Induction of apoptosis in human MDA-MB-231 cells assessed as late apoptotic cells at 1.6 uM incubated for 24 hrs by Annexin V-FITC/PI staining based flow cytometry (reference value: 1.23 %); type: functional
[11] = tested on: HCC1806; assay: Induction of apoptosis in human HCC1806 cells assessed as late apoptotic cells at 0.2 uM incubated for 24 hrs by Annexin V-FITC/PI staining based flow cytometry (reference value: 0.23 %); type: functional
[12] = tested on: HCC1806; assay: Upregulation of JAK2 mRNA level in human HCC1806 cells at 0.2 uM incubated for 18 to 72 hrs; type: functional, cell-based; details: time 18-72 hrs
[13] = Toxicity in Balb/c nude mouse assessed as histopathological change in liver at 60 mg/kg, ip bid for 14 days consecutively; type: organism-based; details: in vivo, 336 h, time 14 day
[14] = tested on: MDA-MB-231; assay: Inhibition of colony formation in human MDA-MB-231 cells at 0.05 uM measured after 7 days; type: functional, cell-based; details: time 7.0 day
[15] = tested on: HCC1806; assay: Anti-proliferative activity against human HCC1806 cells assessed as reduction in EdU-positive cells at 0.2 uM; type: functional, cell-based
[16] = tested on: HCC1806; assay: Induction of apoptosis in human HCC1806 cells assessed as decrease in STAT3 phosphorylation at Y705 by Western blot analysis; type: functional, cell-based; details: dose 0.1-0.4 µM
[17] = Toxicity in Balb/c nude mouse assessed as histopathological change in lung at 60 mg/kg, ip bid for 14 days consecutively; type: organism-based; details: in vivo, 336 h, time 14 day
[18] = tested on: HCC1806; assay: Induction of cell cycle arrest at G2/M phase in human HCC1806 cells at 0.1 to 0.4 uM incubated for 24 hrs; type: functional, cell-based; details: dose 0.1-0.4 µM
[19] = Toxicity in Balb/c nude mouse assessed as histopathological change in heart at 60 mg/kg, ip bid for 14 days consecutively; type: organism-based; details: in vivo, 336 h, time 14 day
[20] = tested on: HCC1806; assay: Anti-proliferative activity against human HCC1806 cells assessed as cell growth inhibition incubated for 72 hrs by MTT assay; type: functional, cell-based; details: HCC1806, 72 h
[21] = tested on: MDA-MB-231; assay: Anti-proliferative activity against human MDA-MB-231 cells assessed as cell survival; type: functional; details: dose < 0.4 µM; time 24 hrs
[22] = tested on: HCC1806; assay: Induction of apoptosis in human HCC1806 cells assessed as decrease in JAK2 level by Western blot analysis; type: functional, cell-based; details: dose 0.1-0.4 µM
[23] = tested on: MDA-MB-231; assay: Induction of apoptosis in human MDA-MB-231 cells assessed as early apoptotic cells at 0.4 uM incubated for 24 hrs by Annexin V-FITC/PI staining based flow cytometry (reference value: 1.16 %); type: functional
[24] = tested on: MDA-MB-231; assay: Induction of apoptosis in human MDA-MB-231 cells assessed as late apoptotic cells at 0.2 uM incubated for 24 hrs by Annexin V-FITC/PI staining based flow cytometry (reference value: 1.23 %); type: functional
[25] = tested on: MDA-MB-231; assay: Inhibition of cell migration in human MDA-MB-231 cells; type: functional, cell-based; details: dose 0.05-2 µM
[26] = biological target: Tyrosine-protein kinase JAK2 (Homo sapiens, UniProt O60674); assay: Induction of JAK2 degradation in human HCC1806 cells at 0.2 uM incubated for 18 to 72 hrs by Western blot analysis; type: cell-based; details: time 18-72 hrs
[27] = tested on: HCC1806; assay: Induction of apoptosis in human HCC1806 cells assessed as late apoptotic cells at 0.4 uM incubated for 24 hrs by Annexin V-FITC/PI staining based flow cytometry (reference value: 0.23 %); type: functional
[28] = tested on: HCC1806; assay: Induction of apoptosis in human HCC1806 cells assessed as early apoptotic cells at 0.1 uM incubated for 24 hrs by Annexin V-FITC/PI staining based flow cytometry (reference value: 0.67 %); type: functional
[29] = tested on: HCC1806; assay: Antitumor activity against human HCC1806 cells xenografted in Balb/c mouse assessed as decrease in Ki67 level at 40 to 60 mg/kg, ip bid measured after 14 days by IHC analysis; type: functional, organism-based; details: dose 40-60 mg/kg, time 14.0 day
[30] = tested on: MDA-MB-231; assay: Induction of apoptosis in human MDA-MB-231 cells assessed as necrotic cells at 0.2 uM incubated for 24 hrs by Annexin V-FITC/PI staining based flow cytometry (reference value: 0.07 %); type: functional
[31] = Toxicity in Balb/c nude mouse assessed as animal mortality at 60 mg/kg, ip bid for 14 days consecutively; type: organism-based; details: in vivo, 336 h, time 14 day
[32] = tested on: HCC1806; assay: Antitumor activity against human HCC1806 cells xenografted in Balb/c mouse at 60 mg/kg, ip bid measured after 14 days relative to control; type: functional; details: HCC1806, 336 h, time 14 day, read-out: TGI
[33] = tested on: HCC1806; assay: Induction of apoptosis in human HCC1806 cells assessed as necrotic cells at 1.6 uM incubated for 24 hrs by Annexin V-FITC/PI staining based flow cytometry (reference value: 0.15 %); type: functional
[34] = tested on: HCC1806; assay: Antitumor activity against human HCC1806 cells xenografted in Balb/c mouse assessed as decrease in JAK2 level at 40 to 60 mg/kg, ip bid measured after 14 days by immunofluorescence based analysis; type: functional, organism-based; details: dose 40-60 mg/kg, time 14.0 day
[35] = tested on: HCC1806; assay: Effect on UCHL3 level in human HCC1806 cells at 0.1 to 0.4 uM incubated for 24 hrs by Western blot analysis; type: functional, cell-based; details: dose 0.1-0.4 µM
[36] = tested on: MDA-MB-231; assay: Induction of apoptosis in human MDA-MB-231 cells assessed as ROS production rate at 0.2 uM incubated for 24 hrs by DCFH-DA staining based flow cytometry (reference value: 0.28 %); type: functional
[37] = AUC (0 to infinity) in Sprague-Dawley rat at 4 mg/kg, ip; type: ADME, organism-based; details: in vivo
[38] = tested on: MDA-MB-231; assay: Induction of cell cycle arrest at G2/M phase in human MDA-MB-231 cells at 0.1 to 0.4 uM incubated for 24 hrs; type: functional, cell-based; details: dose 0.1-0.4 µM

Tyrosine-protein kinase JAK2, sequence (O60674 whole entry): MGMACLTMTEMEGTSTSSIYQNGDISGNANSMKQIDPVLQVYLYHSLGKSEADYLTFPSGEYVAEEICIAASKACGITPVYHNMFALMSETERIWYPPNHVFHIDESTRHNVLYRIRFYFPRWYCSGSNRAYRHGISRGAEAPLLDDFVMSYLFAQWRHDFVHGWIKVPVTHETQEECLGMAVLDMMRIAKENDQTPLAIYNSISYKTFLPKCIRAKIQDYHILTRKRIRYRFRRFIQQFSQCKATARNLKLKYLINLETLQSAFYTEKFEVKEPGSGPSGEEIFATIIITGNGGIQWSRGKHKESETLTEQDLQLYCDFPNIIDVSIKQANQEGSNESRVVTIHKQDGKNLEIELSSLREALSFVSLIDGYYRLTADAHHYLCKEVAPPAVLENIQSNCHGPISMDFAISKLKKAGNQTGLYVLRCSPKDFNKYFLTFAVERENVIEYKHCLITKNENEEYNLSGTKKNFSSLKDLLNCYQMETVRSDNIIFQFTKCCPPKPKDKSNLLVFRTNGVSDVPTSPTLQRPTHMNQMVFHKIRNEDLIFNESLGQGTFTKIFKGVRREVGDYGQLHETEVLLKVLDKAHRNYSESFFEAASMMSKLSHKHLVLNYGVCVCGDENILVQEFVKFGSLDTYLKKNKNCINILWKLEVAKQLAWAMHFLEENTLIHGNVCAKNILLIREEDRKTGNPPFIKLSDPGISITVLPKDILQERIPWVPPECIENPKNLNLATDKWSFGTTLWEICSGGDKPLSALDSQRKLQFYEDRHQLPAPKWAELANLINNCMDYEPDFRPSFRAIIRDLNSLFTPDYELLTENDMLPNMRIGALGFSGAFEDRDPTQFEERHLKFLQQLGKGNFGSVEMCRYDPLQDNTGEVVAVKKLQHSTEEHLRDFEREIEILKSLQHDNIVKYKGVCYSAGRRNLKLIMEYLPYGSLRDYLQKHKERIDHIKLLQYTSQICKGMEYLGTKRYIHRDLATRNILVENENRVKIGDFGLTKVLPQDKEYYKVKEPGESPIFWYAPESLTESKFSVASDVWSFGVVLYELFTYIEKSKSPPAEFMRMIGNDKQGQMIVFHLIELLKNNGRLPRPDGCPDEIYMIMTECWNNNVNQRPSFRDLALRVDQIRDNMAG

For `COc1cc(Nc2cc(F)ccc2C(=O)NCCc2c[nH]c3c(F)ccc(F)c23)cc(OC)c1OC`, the Activity [1] was “Active”, the viability at 0.1 µM [2] was 99% and the Activity [3] was 5%. The Activity [4] was 4.81%, the Activity [5] was 0.28% and the IC50 [6] was 590 nM. For the same compound, the inhibition [7] was “Active”, the Activity [8] was “Active” and the Activity [9] was 2.3%. The Activity [10] was 4.95%, the Activity [11] was 0.45% and the Activity [12] was “Active”. The Activity [13] was “Non-Toxic”, the inhibition [14] was “Active” and the Activity [15] was “Active”. The Activity [16] was “Active”, the Activity [17] was “Non-Toxic” and the Activity [18] was “Active”. For the same compound, the Activity [19] was “Non-Toxic”, the IC50 [20] was 250 nM and the Survival [21] was greater than 80%. The Activity [22] was “Active”, the Activity [23] was 2.31% and the Activity [24] was 1.69%. For the same compound, the inhibition [25] was “Active”, the Activity [26] was “Active” and the Activity [27] was 0.76%. For the same compound, the Activity [28] was 0.65%, the Activity [29] was “Active” and the Activity [30] was 0.19%. For the same compound, the Activity [31] was “Non-Toxic”, the inhibition in vivo at 60 mg/kg [32] was 67.7% and the Activity [33] was 0.35%. For the same compound, the Activity [34] was “Active”, the Activity [35] was “inactive” and the Activity [36] was 1.06%. The AUC(0-inf) [37] was 1970 ng·h/mL and the Activity [38] was “Active”.
